In patent US8273890B2 (4SC AG, priority 2007, dated 2012) one finds melting point and IC50 data, which are given here for 23 molecules.

Usually melting point stands for the temperature, or range, at which the solid turns liquid. Broadly, the IC50 is the midpoint of a concentration-inhibition curve.

Test system in the first series: not given
Experiment: not given
Details: not given
For `NC(=O)c1sc(-n2cnc3cnc(Cl)cc32)cc1OCc1ccccc1C(F)(F)F` [Example 1, 5-(6-Chloro-1H-imidazo[4,5-c]pyridin-1-yl)-3-{[2-(trifluoromethyl)benzyl]oxy}thiophene-2-carboxamide], the melting point is 248 to 249 °C (dec.).
On to `NC(=O)c1sc(-n2cnc3cnccc32)cc1OCc1ccccc1C(F)(F)F` [Example 2, 5-(1H-Imidazo[4,5-c]pyridin-1-yl)-3-{[2-(trifluoromethyl)benzyl]oxy}thio-phene-2-carboxamide], for which the melting point is 226 to 227 °C (dec.).

A further series deals with T1, recombinant Plk1 protein (Homo sapiens, UniProt P53350).
T1 construct: histidine tag (N); made in house; host or cells: SF9 insect cells
T1 sequence (P53350 whole entry): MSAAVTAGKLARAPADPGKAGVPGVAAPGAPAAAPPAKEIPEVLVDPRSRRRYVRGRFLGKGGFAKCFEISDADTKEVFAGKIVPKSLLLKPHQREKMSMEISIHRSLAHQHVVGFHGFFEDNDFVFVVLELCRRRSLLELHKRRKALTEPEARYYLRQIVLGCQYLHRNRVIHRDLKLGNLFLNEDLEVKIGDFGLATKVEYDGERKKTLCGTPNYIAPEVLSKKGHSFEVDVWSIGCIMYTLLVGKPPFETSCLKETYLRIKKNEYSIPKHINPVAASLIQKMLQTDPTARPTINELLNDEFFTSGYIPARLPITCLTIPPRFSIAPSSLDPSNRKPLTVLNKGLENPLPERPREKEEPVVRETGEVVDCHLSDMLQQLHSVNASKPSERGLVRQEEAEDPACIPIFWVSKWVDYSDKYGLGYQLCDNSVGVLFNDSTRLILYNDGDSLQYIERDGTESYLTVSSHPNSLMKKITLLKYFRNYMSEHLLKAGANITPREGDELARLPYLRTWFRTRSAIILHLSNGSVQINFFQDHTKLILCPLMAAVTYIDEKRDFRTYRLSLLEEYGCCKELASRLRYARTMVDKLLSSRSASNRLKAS
Nature of the series: Plk1 kinase activity inhibition assay (33P-ATP, alpha casein substrate, flash plates). It is filed as biochemical. Particulars: enzymatic assay, 100 nM Li-ATP, 80 minutes at 30° C. The method in brief:
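IC50 derived from radioactive flash-plate counts of 33P-labelled alpha casein after 80 min at 30 °C. Reaction: 100 nM 33P-containing ATP, 50–100 ng His-tagged Plk1 (SF9-expressed), 500 ng casein per well, HEPES pH 7.5 buffer with MgCl2/MnCl2.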
For the molecule `C[C@@H](Oc1cc(-n2cnc3cnc(CN4CCN(S(C)(=O)=O)CC4)cc32)sc1C(N)=O)c1ccccc1C(F)(F)F` [Example 66, 5-(6-{[4-(methylsulfonyl)piperazin-1-yl]methyl}-1H-imidazo[4,5-c]pyridin-1-yl)-3-{(1R)-1-[2-(trifluoromethyl)phenyl]ethoxy}thiophene-2-carboxamide], the IC50 is less than 10 nM.
On the same count and under the same terms, to `C[C@@H](Oc1cc(-n2cnc3cc(CO)ncc32)sc1C(N)=O)c1ccccc1C(F)(F)F` [Example 47, 5-[6-(hydroxymethyl)-3H-imidazo[4,5-c]pyridin-3-yl]-3-{(1R)-1-[2-(trifluoromethyl)phenyl]ethoxy}thiophene-2-carboxamide] belongs 10 to 100 nM; to `CC(Oc1cc(-n2cnc3ccncc32)sc1C(N)=O)c1ccccc1C(F)(F)F` (stereo not shown) [Example 13, 5-(3H-Imidazo[4,5-c]pyridin-3-yl)-3-{1-[2-(trifluoromethyl)phenyl]ethoxy}thiophene-2-carboxamide], 10 to 100 nM.
Still for that read-out and setting: to `NC(=O)c1sc(-n2cnc3ccncc32)cc1OCc1ccccc1C(F)(F)F` [Example 3, 5-(3H-Imidazo[4,5-c]pyridin-3-yl)-3-{[2-(trifluoromethyl)benzyl]oxy}thio-phene-2-carboxamide] belongs 100 to 1000 nM; to `CC(Oc1cc(-n2cnc3cnc(CO)cc32)sc1C(N)=O)c1ccc(C#N)cc1Cl` (stereo not shown) [Example 123, 3-[1-(2-chloro-4-cyanophenyl)ethoxy]-5-[6-(hydroxymethyl)-1H-imidazo[4,5-c]pyridin-1-yl]thiophene-2-carboxamide], less than 10 nM.
On to `NC(=O)c1sc(-n2cnc3cnc(Cl)cc32)cc1OCc1ccccc1C(F)(F)F` [Example 1, 5-(6-Chloro-1H-imidazo[4,5-c]pyridin-1-yl)-3-{[2-(trifluoromethyl)benzyl]oxy}thiophene-2-carboxamide], for which the 50% inhibitory concentration (IC50) lay in the range of 10 to 100 nM.
On the same count and under the same terms, the result for `CC(Oc1cc(-n2cnc3cnc(CO)cc32)sc1C(N)=O)c1ccc(F)cc1C(F)(F)F` (stereo not shown) [Example 51, 3-{1-[4-fluoro-2-(trifluoromethyl)phenyl]ethoxy}-5-[6-(hydroxymethyl)-1H-imidazo[4,5-c]pyridin-1-yl]thiophene-2-carboxamide] reads less than 10 nM; that for `CC(Oc1cc(-n2cnc3cnc(CN4CCN(C)CC4)cc32)sc1C(N)=O)c1ccccc1F` (stereo not shown) [Example 103, 3-[1-(2-fluorophenyl)ethoxy]-5-{6-[(4-methylpiperazin-1-yl)methyl]-1H-imidazo[4,5-c]pyridin-1-yl}thiophene-2-carboxamide], 10 to 100 nM; that for `C[C@@H](Oc1cc(-n2cnc3cnc(CN4CCN(Cc5ccccc5)CC4)cc32)sc1C(N)=O)c1ccccc1C(F)(F)F` [Example 79, 5-{6-[(4-benzylpiperazin-1-yl)methyl]-1H-imidazo[4,5-c]pyridin-1-yl}-3-{(1R)-1-[2-(trifluoromethyl)phenyl]ethoxy}thiophene-2-carboxamide], 10 to 100 nM.
Still for that read-out and setting: the result for `CC(Oc1cc(-n2cnc3cc(CO)ncc32)sc1C(N)=O)c1ccccc1Cl` (stereo not shown) [Example 125, 3-[-1-(2-chlorophenyl)ethoxy]-5-[6-(hydroxymethyl)-3H-imidazo[4,5-c]pyridin-3-yl]thiophene-2-carboxamide] reads less than 10 nM.
Same read-out and setting: to `CCC(Oc1cc(-n2cnc3cnc(CN4CCN(C5CC5)CC4)cc32)sc1C(N)=O)c1ccccc1Cl` (stereo not shown) [Example 140, 3-{[1-(2-chlorophenyl)propyl]oxy}-5-{6-[(4-cyclopropylpiperazin-1-yl)methyl]-1H-imidazo[4,5-c]pyridin-1-yl}thiophene-2-carboxamide] belongs 10 to 100 nM.
On to `COc1cc2c(cn1)ncn2-c1cc(OCc2ccccc2C(F)(F)F)c(C(=O)O)s1` [Example 18, 5-(6-Methoxy-1H-imidazo[4,5-c]pyridin-1-yl)-3-{[2-(trifluoromethyl)benzyl]oxy}thiophene-2-carboxylic acid], for which the IC50 fell in the range of 10 to 100 nM.
Same read-out and setting: the result for `C[C@@H](Oc1cc(-n2cnc3cnc(CN4CCN(C5CC5)CC4)cc32)sc1C(N)=O)c1ccccc1C(F)(F)F` [Example 60, 5-{6-[(4-cyclopropylpiperazin-1-yl)methyl]-1H-imidazo[4,5-c]pyridin-1-yl}-3-{(1R)-1-[2-(trifluoromethyl)phenyl]ethoxy}thiophene-2-carboxamide] reads less than 10 nM.
The same measure, in the same setting: to `NC(=O)c1sc(-n2cnc3cnccc32)cc1OCc1ccc(C(F)(F)F)cc1` [Example 36, 5-(1H-imidazo[4,5-c]pyridin-1-yl)-3-{[4-(trifluoromethyl)benzyl]oxy}thiophene-2-carboxamide] belongs 100 to 1000 nM.
In the case of `CN1CCN(Cc2cc3c(cn2)ncn3-c2cc(OCc3ccccc3C(F)(F)F)c(C(N)=O)s2)CC1` [Example 8, 5-{6-[(4-Methylpiperazin-1-yl)methyl]1H-imidazo[4,5-c]pyridin-1-yl}-3-{[2-(trifluoromethyl)benzyl]oxy}thiophene-2-carboxamide], the IC50 is less than 10 nM.
On the same count and under the same terms, the result for `C[C@@H](Oc1cc(-n2cnc3cnc(CN4CCC(O)C4)cc32)sc1C(N)=O)c1ccccc1C(F)(F)F` (stereo partly drawn) [Example 94, 5-{6-[(3-hydroxypyrrolidin-1-yl)methyl]-1H-imidazo[4,5-c]pyridin-1-yl}-3-{(1R)-1-[2-(trifluoromethyl)phenyl]ethoxy}thiophene-2-carboxamide] reads less than 10 nM; that for `CCc1ccccc1COc1cc(-n2cnc3cnc(CN4CCN(CC)CC4)cc32)sc1C(N)=O` [Example 154, 3-[(2-ethylbenzyl)oxy]-5-{6-[(4-ethylpiperazin-1-yl)methyl]-1H-imidazo[4,5-c]pyridin-1-yl}thiophene-2-carboxamide], 10 to 100 nM.
As for `CCC(Oc1cc(-n2cnc3cnc(CN4CCN(CCOC)CC4)cc32)sc1C(N)=O)c1ccccc1Cl` (stereo not shown) [Example 139, 3-{[1-(2-chlorophenyl)propyl]oxy}-5-(6-{[4-(2-methoxyethyl)piperazin-1-yl]methyl}-1H-imidazo[4,5-c]pyridin-1-yl)thiophene-2-carboxamide], the IC50 was 10 to 100 nM.
Same read-out and setting: the result for `CC(=O)N1CCCN(Cc2cc3c(cn2)ncn3-c2cc(O[C@H](C)c3ccccc3C(F)(F)F)c(C(N)=O)s2)CC1` [Example 81, 5-{6-[(4-acetyl-1,4-diazepan-1-yl)methyl]-1H-imidazo[4,5-c]pyridin-1-yl}-3-{(1R)-1-[2-(trifluoromethyl)phenyl]ethoxy}thiophene-2-carboxamide] reads 10 to 100 nM; that for `NC(=O)c1sc(-n2cnc3cnc(CNC4CC4)cc32)cc1OCc1ccccc1C(F)(F)F` [Example 7, 5-{6-[(Cyclopropylamino)methyl]-1H-imidazo[4,5-c]pyridin-1-yl}-3-{[2-(trifluoromethyl)benzyl]oxy}thiophene-2-carboxamide], 10 to 100 nM.
The same measure, in the same setting: the result for `CCC(Oc1cc(-n2cnc3cnc(CN4CCN(c5ccncc5)CC4)cc32)sc1C(N)=O)c1ccccc1Cl` (stereo not shown) [Example 143, 3-{[1-(2-chlorophenyl)propyl]oxy}-5-{6-[(4-pyridin-4-ylpiperazin-1-yl)methyl]-1H-imidazo[4,5-c]pyridin-1-yl}thiophene-2-carboxamide] reads 10 to 100 nM; that for `C[C@@H](Oc1cc(-n2cnc3cnc(CN4CCN(c5ccncc5)CC4)cc32)sc1C(N)=O)c1ccccc1Cl` [Example 131, 3-[(1R)-1-(2-chlorophenyl)ethoxy]-5-{6-[(4-pyridin-4-ylpiperazin-1-yl)methyl]-1H-imidazo[4,5-c]pyridin-1-yl}thiophene-2-carboxamide], 10 to 100 nM; that for `NC(=O)c1sc(-n2cnc3cnccc32)cc1OCc1ccccc1C(F)(F)F` [Example 2, 5-(1H-Imidazo[4,5-c]pyridin-1-yl)-3-{[2-(trifluoromethyl)benzyl]oxy}thio-phene-2-carboxamide], 10 to 100 nM.
